Reference: patent publication US11814364B2, “Pyridine N-oxide derivatives useful as factor XIa inhibitors” (Janssen Pharmaceutica NV, priority 2021, dated 2023)

These compounds were tested against human plasma kallikrein (Homo sapiens, UniProt P03952) (assay: Kallikrein inhibition FLINT assay with quenched AMC peptide substrate Z-Gly-Pro-Arg-AMC (end point EP or kinetic KIN reads)). Conditions: kinetic reads at 5 min intervals over 30 min; read-out: Kallikrein (KIN) IC50.
human plasma kallikrein, sequence (P03952 391-638 limits assumed): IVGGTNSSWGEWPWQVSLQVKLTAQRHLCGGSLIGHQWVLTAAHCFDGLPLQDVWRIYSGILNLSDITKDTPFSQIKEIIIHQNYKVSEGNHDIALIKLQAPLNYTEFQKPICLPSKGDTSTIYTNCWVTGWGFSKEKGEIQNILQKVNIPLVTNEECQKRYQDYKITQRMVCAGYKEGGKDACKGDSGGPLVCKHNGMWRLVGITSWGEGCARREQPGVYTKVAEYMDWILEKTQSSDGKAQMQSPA
human plasma kallikrein, sequence (P03952 20-390 partner limits assumed): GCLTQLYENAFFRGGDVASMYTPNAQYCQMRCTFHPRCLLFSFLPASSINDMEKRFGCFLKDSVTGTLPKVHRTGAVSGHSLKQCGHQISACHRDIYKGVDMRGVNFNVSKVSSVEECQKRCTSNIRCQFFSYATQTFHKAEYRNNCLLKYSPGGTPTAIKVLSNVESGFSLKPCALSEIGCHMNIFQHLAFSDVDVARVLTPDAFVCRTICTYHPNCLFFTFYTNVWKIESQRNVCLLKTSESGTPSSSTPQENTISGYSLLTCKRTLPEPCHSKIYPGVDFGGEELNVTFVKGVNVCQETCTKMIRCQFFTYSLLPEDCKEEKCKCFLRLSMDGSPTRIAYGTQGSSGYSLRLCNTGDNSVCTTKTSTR
Type: biochemical
Method in brief: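 Enzyme and compound were preincubated 30 min before adding 50 μM AMC substrate in pH 7.5 Tris/NaCl/CaCl2/BSA/CHAPS buffer. AMC release was read at 30 min endpoint or every 5 min.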
O=C(NC1CC1)c1ccc(-c2cnn(C(Cc3ccc(F)cc3)c3ccc(-c4cc(Cl)ccc4-n4cnnn4)c[n+]3[O-])c2)cc1 (centres unmarked) [Example P55] gave an IC50 of 0.0054 µM.
With COc1cc(C(CC2CC2)n2cc(-c3ccc(N)nc3F)cn2)[n+]([O-])cc1-c1c(-c2cnco2)ccc(Cl)c1F (centres unmarked) [Example P182] the IC50 was 0.0552 µM.
[O-][n+]1cc(-c2c(-n3cnnn3)ccc(Cl)c2F)ccc1C(CCOC(F)F)n1cc(-c2c(Cl)ncn2C(F)F)cn1 (single isomer, unassigned) [Example P843] gave an IC50 of roughly 0.071 µM.
With [O-][n+]1ccc(-c2cnn(C(Cn3cc(F)cn3)c3ccc(-c4c(-n5cnnn5)ccc(Cl)c4F)c[n+]3[O-])c2)cc1 (centres unmarked) [Example P360] the IC50 was 0.0366 µM.
Cn1ncnc1-c1cnn(C(CCOC(F)F)c2ccc(-c3c(N)ccc(Cl)c3F)c[n+]2[O-])c1 (centres unmarked) [Example Q45] was tested, and the IC50 was 0.231 µM.
With NC(=O)c1ccc(-c2cnn(C(Cc3ccn(C(F)F)n3)c3ccc(-c4c(-n5cc(C(F)(F)F)nn5)ccc(Cl)c4F)c[n+]3[O-])c2)cc1F (centres unmarked) [Example P892] the IC50 was 0.0029 µM.
CC(C)c1cc(-c2cnn(C(Cn3cc(F)cn3)c3ccc(-c4c(-n5cnnn5)ccc(Cl)c4F)c[n+]3[O-])c2)cc[n+]1[O-] (single isomer, unassigned) [Example P413] was tested, and the IC50 was 0.0193 µM.
CCC(c1ccc(-c2c(-n3cnnn3)ccc(Cl)c2F)c[n+]1[O-])n1cc(-c2ccc(NC(=O)OC)cc2)cn1 (centres unmarked) [Example P153] was tested, and the IC50 was 0.108 µM.
With COCC(=O)N(C)CC(c1ccc(-c2c(-n3cnnn3)ccc(Cl)c2F)c[n+]1[O-])n1cc(-c2ccnc(C(F)(F)F)c2)cn1 (centres unmarked) [Example P427] the IC50 was 0.0668 µM.
For O=C(O)c1ccc(-c2cnn(C(Cc3ccn(C(F)F)n3)c3ccc(-c4c(C(F)F)ccc(Cl)c4F)c[n+]3[O-])c2)cc1F (single isomer, unassigned) [Example Q64], the IC50 was 0.0047 µM.
For O=C(Cc1cnn(CC(c2ccc(-c3c(-n4cnnn4)ccc(Cl)c3F)c[n+]2[O-])n2cc(-c3ccnc(C(F)(F)F)c3)cn2)c1)N1CCCCC1 (centres unmarked) [Example P475], the IC50 was 0.324 µM.
[O-][n+]1cc(-c2c(-n3cnnn3)ccc(Cl)c2F)ccc1[C@@H](CCOC(F)F)n1cc(-c2scnc2C(F)(F)F)cn1 [Example P580] gave an IC50 of 0.0135 µM.
In the case of N#Cc1cc(-c2cnn(C(CC3CC3)c3ccc(-c4c(-n5cnnn5)ccc(Cl)c4F)c[n+]3[O-])c2)ccn1 (centres unmarked) [Example P294], the IC50 is reported as 0.212 µM.
With COc1cc(C(CC2CC2)n2cc(-c3cnn(C)c(=O)c3)cn2)[n+]([O-])cc1-c1c(-n2cnnn2)ccc(Cl)c1F (centres unmarked) [Example P66] the IC50 was 0.0206 µM.
Cn1cc(CC(c2ccc(-c3c(C(F)F)ccc(Cl)c3F)c[n+]2[O-])n2cc(-c3cnnn3C)cn2)cn1 (single isomer, unassigned) [Example Q42] showed an IC50 of 0.0443 µM.
Work on CCCC(c1ccc(-c2c(-n3cnnn3)ccc(Cl)c2F)c[n+]1[O-])n1cc(-c2ccc(NC(=O)OC)cc2)cn1 (centres unmarked) [Example P156] yielded an IC50 of 0.0867 µM.
In the case of CCC(c1ccc(-c2c(-n3cnnn3)ccc(Cl)c2F)c[n+]1[O-])n1cc(-c2ccc(NC(=O)OC)cc2)cn1 (single isomer, unassigned) [Example P155], the IC50 is reported as 0.0861 µM.
COc1cc(C(Cc2ccccc2)n2cc(-c3ccc(C(=O)O)cc3)cn2)[n+]([O-])cc1-c1c(OCC(F)(F)F)ccc(Cl)c1F (centres unmarked) [Example Q6] showed an IC50 of 0.0104 µM.
In the case of CC(C)C(=O)N(C)CC(c1ccc(-c2c(-n3cnnn3)ccc(Cl)c2F)c[n+]1[O-])n1cc(-c2ccnc(F)c2)cn1 (centres unmarked) [Example P418], the IC50 is reported as 0.0556 µM.
COC(=O)Nc1ccc(-c2cnn(C(Cc3ccccc3)c3ccc(-c4c(-n5cnnn5)ccc(Cl)c4F)c[n+]3[O-])c2)cc1 (centres unmarked) [Example P71] gave an IC50 of 0.0075 µM.
For Cn1nncc1-c1cnn([C@H](Cc2ccc(F)cc2)c2ccc(-c3c(-n4cc(OC(F)F)nn4)ccc(Cl)c3F)c[n+]2[O-])c1 [Example P635], the IC50 was 0.0034 µM.
CN(C)C(=O)c1ccn(CC(c2ccc(-c3c(-n4cnnn4)ccc(Cl)c3F)c[n+]2[O-])n2cc(-c3ccnc(C(F)(F)F)c3)cn2)n1 (single isomer, unassigned) [Example P451] gave an IC50 of 0.0178 µM.
CCOc1cc(C(CC2CC2)n2cc(-c3ccncc3)cn2)[n+]([O-])cc1-c1c(-n2cnnn2)ccc(Cl)c1F (centres unmarked) [Example P251] showed an IC50 of 0.0025 µM.
[O-][n+]1cc(-c2c(-n3cnnn3)ccc(Cl)c2F)ccc1[C@@H](CCOC(F)F)n1cc(-c2ccnn2C(F)F)cn1 [Example P564] gave an IC50 of 0.0056 µM.
Compound CC1CC1CC(c1ccc(-c2c(-n3cnnn3)ccc(Cl)c2F)c[n+]1[O-])n1cc(-c2ncnn2C(F)F)cn1 (centres unmarked) [Example P765] has an IC50 greater than 0.1 µM.
Compound CC(=O)N(C)CC(c1ccc(-c2c(-n3cnnn3)ccc(Cl)c2F)c[n+]1[O-])n1cc(-c2ccnc(C(F)(F)F)c2)cn1 (single isomer, unassigned) [Example P404] has an IC50 of 0.0684 µM.
CCn1ncc(-c2cnn(C(CC3CC3)c3cc(OC)c(-c4c(-n5cnnn5)ccc(Cl)c4F)c[n+]3[O-])c2)cc1=O (centres unmarked) [Example P170] showed an IC50 of 0.0468 µM.
N#Cc1cnn(C(F)F)c1-c1cnn(C(CC2CC2)c2ccc(-c3c(-n4cnnn4)ccc(Cl)c3F)c[n+]2[O-])c1 (single isomer, unassigned) [Example P663] gave an IC50 of 0.933 µM.
NC(=O)c1ccc(-c2cnn(C(Cc3ccn(C(F)F)n3)c3ccc(-c4c(C(F)F)ccc(Cl)c4F)c[n+]3[O-])c2)cc1 (single isomer, unassigned) [Example Q69] showed an IC50 of 0.0008 µM.
[O-][n+]1cc(-c2c(-n3cnnn3)ccc(Cl)c2F)ccc1C(CCOC(F)F)n1cc(-c2ccnc(C(F)(F)F)c2)cn1 (centres unmarked) [Example P462] was tested, and the IC50 was 0.0143 µM.
For NC(=O)c1ccc(-c2cnn(C(Cn3cccn3)c3ccc(-c4c(-n5cc(C(F)(F)F)nn5)ccc(Cl)c4F)c[n+]3[O-])c2)cc1F (centres unmarked) [Example P948], the IC50 was 0.0118 µM.
With COCc1ccn(CC(c2ccc(-c3c(-n4cnnn4)ccc(Cl)c3F)c[n+]2[O-])n2cc(-c3ccnc(C(F)(F)F)c3)cn2)n1 (single isomer, unassigned) [Example P440] the IC50 was 0.0702 µM.
[O-][n+]1cc(-c2c(-n3cnnn3)ccc(Cl)c2F)ccc1C(CC1CC1)n1cc(-c2ccncc2)cn1 (single isomer, unassigned) [Example P262] was tested, and the IC50 was 0.0318 µM.
In the case of Cn1ncnc1-c1cnn(C(CC2CNCCO2)c2ccc(-c3c(-n4cc(C(F)(F)F)nn4)ccc(Cl)c3F)c[n+]2[O-])c1 (centres unmarked) [Example P934], the IC50 is reported as 0.326 µM.
For N#Cc1cn(-c2ccc(Cl)c(F)c2-c2ccc([C@@H](CCOC(F)F)n3cc(-c4ncnn4C(F)F)cn3)[n+]([O-])c2)nn1 [Example P790], the IC50 was 0.0358 µM.
With [O-][n+]1cc(-c2c(-n3cc(Cl)nn3)ccc(Cl)c2F)ccc1[C@@H](Cn1cc(F)cn1)n1cc(-c2ccnn2C(F)F)cn1 [Example P643] the IC50 was 0.0505 µM.
Cn1nnc(F)c1-c1cnn([C@H](CCOC(F)F)c2ccc(-c3c(-n4cc(C(F)(F)F)nn4)ccc(Cl)c3F)c[n+]2[O-])c1 [Example P754] was tested, and the IC50 was 0.0743 µM.
Cn1cncc1-c1cnn(C(CC2CC2)c2ccc(-c3c(-n4cnnn4)ccc(Cl)c3F)c[n+]2[O-])c1 (centres unmarked) [Example P457] gave an IC50 of 0.554 µM.
Work on COc1cc(C(Cc2ccn(C(F)F)n2)n2cc(-c3ccc(C(N)=O)c(F)c3)cn2)[n+]([O-])cc1-c1cc(Cl)ccc1C(C)=O (single isomer, unassigned) [Example Q77] yielded an IC50 of 0.0098 µM.
Compound [O-][n+]1cc(-c2c(-n3cnnn3)ccc(Cl)c2F)ccc1[C@@H](Cc1ccc(C(F)(F)F)nc1)n1cc(-c2ncnn2C(F)F)cn1 [Example P783] has an IC50 of 0.0189 µM.
With [O-][n+]1cc(-c2c(-n3cnnn3)ccc(Cl)c2F)ccc1[C@@H](Cc1cn(C(F)F)nn1)n1cc(-c2ccnc(C(F)(F)F)c2)cn1 [Example P748] the IC50 was 0.0064 µM.
